Test results as given in the NIST ThermoML archive (doi:10.1021/je049875+).
Numbers after ± are expanded uncertainties.

Experiment: activity coefficient (dimensionless); of the first substance listed, at infinite dilution; xn = mol fraction of the nth substance listed
Details: 101.33 kPa, Liquid, Chromatography, x1 = 0

SMILES	activity coefficient (303.25 K)	activity coefficient (313.25 K)	activity coefficient (323.25 K)	activity coefficient (333.25 K)	activity coefficient (308.95 K)	activity coefficient (318.25 K)	activity coefficient (323.15 K)	activity coefficient (343.25 K)
CCOC=O [ethyl methanoate] + O	53.8 ± 3.2	55.7 ± 3.3	57.1 ± 3.4	57.7 ± 3.5				
COC(C)(C)C [2-methoxy-2-methylpropane] + O	153 ± 9	195 ± 12	235 ± 14	278 ± 17				
Cc1ccccc1 [toluene] + O		8090 ± 490			8570 ± 520	7720 ± 470	7110 ± 430	
CCC(C)(C)OC [2-methoxy-2-methylbutane] + O	643 ± 39	796 ± 48	942 ± 57	1080 ± 65				
CC(C)=O [acetone] + O	8.02 ± 0.48	9.2 ± 0.6	9.81 ± 0.58	10.3 ± 0.6				
CCCC(C)=O [pentan-2-one] + O	105 ± 6	120 ± 7	128 ± 8	135 ± 8				
COC(C)=O [methyl ethanoate] + O	26.2 ± 1.6	28.4 ± 1.7	29.8 ± 1.8	31.2 ± 1.9				31.6 ± 1.9
COC=O [methyl methanoate] + O	18.7 ± 1.1	19.1 ± 1.1	19.5 ± 1.2	19.8 ± 1.2				
CCO [ethanol] + O	5.03 ± 0.3	5.33 ± 0.32	5.54 ± 0.33	5.76 ± 0.34				5.96 ± 0.35
c1ccccc1 [benzene] + O		2370 ± 140			2470 ± 150	2250 ± 140	2140 ± 130	
CCOC(C)=O [ethyl acetate] + O	76.5 ± 4.6	85 ± 5	90.1 ± 5.4	94.7 ± 5.7				96.2 ± 5.8
CCCOCCC [dipropyl ether] + O	2520 ± 150	2880 ± 180	3230 ± 200	3230 ± 200				
CCC(C)=O [butanone] + O	29.5 ± 1.8	33.8 ± 2	35.9 ± 2.1	38.9 ± 2.3				
CCOCC [diethyl ether] + O	90.1 ± 5.4	113 ± 7	135 ± 8	158 ± 10				
CCCOC(C)=O [propyl ethanoate] + O	297 ± 18	325 ± 20	341 ± 21	351 ± 21				348 ± 21
CC(C)OC(C)C [diisopropyl ether] + O	737 ± 44	965 ± 58	1140 ± 69	1310 ± 79				
